Test results as given in PubChem BioAssay (NCI).
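Where inhibition never reached the appropriate level, the endpoint shown equals the highest concentration tested. Otherwise, values were interpolated linearly from a five-concentration, 48-hour dose response in 96-well plates. Here, GI50 denotes the concentration required for 50% inhibition of growth. At the TGI there is no net growth.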

How the values were obtained:
Experiment in all cases: growth of human tumour cells (NCI), 48 h
[1] = test system: HL-60(TB) leukemia
[2] = test system: MCF7 breast
[3] = test system: MALME-3M melanoma
[4] = test system: HCC-2998 colon
[5] = test system: PC-3 prostate
[6] = test system: OVCAR-8 ovarian
[7] = test system: SK-MEL-28 melanoma
[8] = test system: CCRF-CEM leukemia
[9] = test system: SNB-75 CNS
[10] = test system: SK-MEL-2 melanoma
[11] = test system: MDA-MB-435
[12] = test system: UO-31 renal
[13] = test system: MOLT-4 leukemia
[14] = test system: COLO 205 colon
[15] = test system: HCT-116 colon
[16] = test system: DU-145 prostate
[17] = test system: K-562 leukemia
[18] = test system: 786-0 renal
[19] = test system: HOP-62 NSCLC
[20] = test system: SF-268 CNS
[21] = test system: SN12C renal
[22] = test system: BT-549 breast
[23] = test system: TK-10 renal
[24] = test system: CAKI-1 renal
[25] = test system: UACC-62 melanoma
[26] = test system: A549 NSCLC
[27] = test system: OVCAR-4 ovarian
[28] = test system: U251 CNS
[29] = test system: SR leukemia
[30] = test system: NCI-H226 lung
[31] = test system: SW-620 colon
[32] = test system: M14 melanoma
[33] = test system: RPMI-8226 leukemia
[34] = test system: NCI-H460 lung
[35] = test system: SF-539 CNS
[36] = test system: OVCAR-3 ovarian
[37] = test system: OVCAR-5 ovarian
[38] = test system: KM12 colon
[39] = test system: NCI/ADR-RES ovarian
[40] = test system: SK-OV-3 ovarian
[41] = test system: SK-MEL-5 melanoma
[42] = test system: UACC-257 melanoma
[43] = test system: SF-295 CNS
[44] = test system: NCI-H522 lung
[45] = test system: HS 578T breast
[46] = test system: SNB-19 CNS
[47] = test system: ACHN renal
[48] = test system: MDA-MB-231 breast
[49] = test system: HOP-92 NSCLC
[50] = test system: HT29 colon
[51] = test system: NCI-H23 lung
[52] = test system: RXF 393 renal
[53] = test system: A498 renal
[54] = test system: T-47D breast
[55] = test system: LOX IMVI melanoma
[56] = test system: HCT-15 colon
[57] = test system: IGROV1 ovarian

C[C@@H](Nc1cc(F)cc(F)c1)c1cc(C(=O)N(C)C)cc2c(=O)cc(N3CCOCC3)oc12
GI50 [1]: 2.17 µM
TGI [1]: > 57.6 µM
GI50 [2]: 0.894 µM
TGI [2]: 99 µM
GI50 [3]: 7.12 µM
TGI [3]: > 84.9 µM
GI50 [4]: 10.4 µM
TGI [4]: > 100 µM
GI50 [5]: 0.586 µM
TGI [5]: > 100 µM
GI50 [6]: 25.5 µM
TGI [6]: > 100 µM
GI50 [7]: 2.5 µM
TGI [7]: > 100 µM
GI50 [8]: 27.5 µM
TGI [8]: > 100 µM
GI50 [9]: 0.0398 µM
TGI [9]: 3.64 µM
GI50 [10]: 25.8 µM
TGI [10]: > 100 µM
GI50 [11]: 8.17 µM
TGI [11]: > 100 µM
GI50 [12]: 2.38 µM
TGI [12]: > 100 µM
GI50 [13]: 2.06 µM
TGI [13]: 52.6 µM
GI50 [14]: 7.09 µM
TGI [14]: 51.1 µM
GI50 [15]: 10.2 µM
TGI [15]: > 100 µM
GI50 [16]: 33.1 µM
TGI [16]: > 100 µM
GI50 [17]: 67.2 µM
TGI [17]: > 100 µM
GI50 [18]: 0.192 µM
TGI [18]: > 100 µM
GI50 [19]: 7.13 µM
TGI [19]: > 100 µM
GI50 [20]: 22.4 µM
TGI [20]: > 100 µM
GI50 [21]: 7.14 µM
TGI [21]: > 100 µM
GI50 [22]: 0.14 µM
TGI [22]: 38.4 µM
GI50 [23]: 2.64 µM
TGI [23]: > 100 µM
GI50 [24]: 9.44 µM
TGI [24]: > 100 µM
GI50 [25]: 1.13 µM
TGI [25]: 20.9 µM
GI50 [26]: 7.43 µM
TGI [26]: > 100 µM
GI50 [27]: 26.1 µM
TGI [27]: > 100 µM
GI50 [28]: 8.58 µM
TGI [28]: > 100 µM
GI50 [29]: 21.9 µM
TGI [29]: > 100 µM
GI50 [30]: > 88.2 µM
TGI [30]: > 100 µM
GI50 [31]: 25.1 µM
TGI [31]: > 100 µM
GI50 [32]: 24.3 µM
TGI [32]: > 100 µM
GI50 [33]: 36.7 µM
TGI [33]: > 100 µM
GI50 [34]: 5.61 µM
TGI [34]: > 100 µM
GI50 [35]: 3.58 µM
TGI [35]: 50.3 µM
GI50 [36]: 1.25 µM
TGI [36]: 61.8 µM
GI50 [37]: 4.16 µM
TGI [37]: > 100 µM
GI50 [38]: > 46.1 µM
TGI [38]: > 100 µM
GI50 [39]: > 83.9 µM
TGI [39]: > 100 µM
GI50 [40]: 2.18 µM
TGI [40]: > 65.3 µM
GI50 [41]: 22.1 µM
TGI [41]: > 76.8 µM
GI50 [42]: 2.6 µM
TGI [42]: > 100 µM
GI50 [43]: 1.23 µM
TGI [43]: 59.9 µM
GI50 [44]: 20.8 µM
TGI [44]: > 100 µM
GI50 [45]: 0.693 µM
TGI [45]: 23.6 µM
GI50 [46]: 10.7 µM
TGI [46]: > 100 µM
GI50 [47]: 3.51 µM
TGI [47]: > 100 µM
GI50 [48]: 24.7 µM
TGI [48]: > 100 µM
GI50 [49]: < 0.0389 µM
TGI [49]: 13 µM
GI50 [50]: 4.04 µM
TGI [50]: > 100 µM
GI50 [51]: > 87 µM
TGI [51]: > 100 µM
GI50 [52]: 0.0251 µM
TGI [52]: 0.973 µM
TGI [53]: < 0.0203 µM
GI50 [54]: 0.315 µM
TGI [54]: 6.94 µM
GI50 [55]: 8.72 µM
TGI [55]: > 100 µM
GI50 [56]: 14.9 µM
TGI [56]: > 100 µM
GI50 [57]: 0.73 µM
TGI [57]: 11.1 µM
